ChEMBL document CHEMBL4507317, “Data for DCP probe BAY-899” (2021)

Legend:
[1] = molecular target: Activin receptor type-2B (Homo sapiens) (UniProt Q13705); settings: Compound concentration 1000.0 nM
[2] = test system: ALK tyrosine kinase receptor (Homo sapiens), Q9UM73 [C1156Y]; settings: Compound concentration 1000.0 nM
[3] = molecular target: Aurora kinase A (Homo sapiens) (UniProt O14965); settings: Compound concentration 1000.0 nM
[4] = molecular target: Serine/threonine-protein kinase B-raf (Homo sapiens) (UniProt P15056); settings: Compound concentration 1000.0 nM
[5] = molecular target: Tyrosine-protein kinase BTK (Homo sapiens) (UniProt Q06187); settings: Compound concentration 1000.0 nM
[6] = molecular target: Dual specificity protein kinase CLK4 (Homo sapiens) (UniProt Q9HAZ1); settings: Compound concentration 1000.0 nM
[7] = molecular target: Megakaryocyte-associated tyrosine-protein kinase (Homo sapiens) (UniProt P42679); settings: Compound concentration 1000.0 nM
[8] = molecular target: Serine/threonine-protein kinase DCLK1 (Homo sapiens) (UniProt O15075); settings: Compound concentration 1000.0 nM
[9] = molecular target: Serine/threonine-protein kinase DCLK3 (Homo sapiens) (UniProt Q9C098); settings: Compound concentration 1000.0 nM
[10] = molecular target: Serine/threonine-protein kinase MRCK gamma (Homo sapiens) (UniProt Q6DT37); settings: Compound concentration 1000.0 nM
[11] = test system: Receptor-type tyrosine-protein kinase FLT3 (Homo sapiens), P36888 [D835H]; settings: Compound concentration 1000.0 nM
[12] = molecular target: Homeodomain-interacting protein kinase 4 (Homo sapiens) (UniProt Q8NE63); settings: Compound concentration 1000.0 nM
[13] = molecular target: Inhibitor of nuclear factor kappa-B kinase subunit alpha (Homo sapiens) (UniProt O15111); settings: Compound concentration 1000.0 nM
[14] = molecular target: Insulin receptor (Homo sapiens) (UniProt P06213); settings: Compound concentration 1000.0 nM
[15] = molecular target: Mitogen-activated protein kinase kinase kinase 13 (Homo sapiens) (UniProt O43283); settings: Compound concentration 1000.0 nM
[16] = molecular target: Mitogen-activated protein kinase kinase kinase 1 (Homo sapiens) (UniProt Q13233); settings: Compound concentration 1000.0 nM
[17] = molecular target: Mitogen-activated protein kinase kinase kinase 2 (Homo sapiens) (UniProt Q9Y2U5); settings: Compound concentration 1000.0 nM
[18] = molecular target: Mitogen-activated protein kinase kinase kinase kinase 2 (Homo sapiens) (UniProt Q12851); settings: Compound concentration 1000.0 nM
[19] = molecular target: MAP/microtubule affinity-regulating kinase 4 (Homo sapiens) (UniProt Q96L34); settings: Compound concentration 1000.0 nM
[20] = molecular target: Mitogen-activated protein kinase kinase kinase 11 (Homo sapiens) (UniProt Q16584); settings: Compound concentration 1000.0 nM
[21] = molecular target: Serine/threonine-protein kinase 26 (Homo sapiens) (UniProt Q9P289); settings: Compound concentration 1000.0 nM
[22] = molecular target: Muscle, skeletal receptor tyrosine-protein kinase (Homo sapiens) (UniProt O15146); settings: Compound concentration 1000.0 nM
[23] = molecular target: Serine/threonine-protein kinase 38-like (Homo sapiens) (UniProt Q9Y2H1); settings: Compound concentration 1000.0 nM
[24] = molecular target: Serine/threonine-protein kinase Nek10 (Homo sapiens) (UniProt Q6ZWH5); settings: Compound concentration 1000.0 nM
[25] = molecular target: Serine/threonine-protein kinase Nek7 (Homo sapiens) (UniProt Q8TDX7); settings: Compound concentration 1000.0 nM
[26] = molecular target: Phosphatidylinositol 4,5-bisphosphate 3-kinase catalytic subunit alpha isoform (Homo sapiens) (UniProt P42336); settings: Compound concentration 1000.0 nM
[27] = test system: Phosphatidylinositol 4,5-bisphosphate 3-kinase catalytic subunit alpha isoform (Homo sapiens), P42336 [E545A]; settings: Compound concentration 1000.0 nM
[28] = molecular target: Phosphatidylinositol 4,5-bisphosphate 3-kinase catalytic subunit beta isoform (Homo sapiens) (UniProt P42338); settings: Compound concentration 1000.0 nM
[29] = molecular target: cAMP-dependent protein kinase catalytic subunit beta (Homo sapiens) (UniProt P22694); settings: Compound concentration 1000.0 nM
[30] = molecular target: Serine/threonine-protein kinase PknB (Mycobacterium tuberculosis) (UniProt P9WI81); settings: Compound concentration 1000.0 nM
[31] = molecular target: Protein kinase C eta type (Homo sapiens) (UniProt P24723); settings: Compound concentration 1000.0 nM
[32] = molecular target: cGMP-dependent protein kinase 1 (Homo sapiens) (UniProt Q13976); settings: Compound concentration 1000.0 nM
[33] = molecular target: Ribosomal protein S6 kinase alpha-1 (Homo sapiens) (UniProt Q15418); settings: Compound concentration 1000.0 nM
[34] = molecular target: Uncharacterized serine/threonine-protein kinase SBK3 (Homo sapiens) (UniProt P0C264); settings: Compound concentration 1000.0 nM
[35] = molecular target: Serine/threonine-protein kinase SIK2 (Homo sapiens) (UniProt Q9H0K1); settings: Compound concentration 1000.0 nM
[36] = molecular target: STE20-like serine/threonine-protein kinase (Homo sapiens) (UniProt Q9H2G2); settings: Compound concentration 1000.0 nM
[37] = molecular target: SNF-related serine/threonine-protein kinase (Homo sapiens) (UniProt Q9NRH2); settings: Compound concentration 1000.0 nM
[38] = molecular target: Serine/threonine-protein kinase TAO1 (Homo sapiens) (UniProt Q7L7X3); settings: Compound concentration 1000.0 nM
[39] = molecular target: Serine/threonine-protein kinase tousled-like 2 (Homo sapiens) (UniProt Q86UE8); settings: Compound concentration 1000.0 nM
[40] = molecular target: Tyrosine-protein kinase receptor TYRO3 (Homo sapiens) (UniProt Q06418); settings: Compound concentration 1000.0 nM
[41] = molecular target: Serine/threonine-protein kinase ULK3 (Homo sapiens) (UniProt Q6PHR2); settings: Compound concentration 1000.0 nM
[42] = molecular target: D(1B) dopamine receptor (Homo sapiens) (UniProt P21918); settings: Compound concentration 10.0 uM
[43] = molecular target: GABA-A receptor; anion channel (Rattus norvegicus) (UniProt O09028+P15431+P18506+P18508+P19969+P20236+P23574+P23576+P28471+P28473+P30191+P62813+P63079+P63138+Q91ZM7+Q9ES14); settings: Compound concentration 10.0 uM

Sequence of Ribosomal protein S6 kinase alpha-1 (Homo sapiens) (Q15418 whole entry): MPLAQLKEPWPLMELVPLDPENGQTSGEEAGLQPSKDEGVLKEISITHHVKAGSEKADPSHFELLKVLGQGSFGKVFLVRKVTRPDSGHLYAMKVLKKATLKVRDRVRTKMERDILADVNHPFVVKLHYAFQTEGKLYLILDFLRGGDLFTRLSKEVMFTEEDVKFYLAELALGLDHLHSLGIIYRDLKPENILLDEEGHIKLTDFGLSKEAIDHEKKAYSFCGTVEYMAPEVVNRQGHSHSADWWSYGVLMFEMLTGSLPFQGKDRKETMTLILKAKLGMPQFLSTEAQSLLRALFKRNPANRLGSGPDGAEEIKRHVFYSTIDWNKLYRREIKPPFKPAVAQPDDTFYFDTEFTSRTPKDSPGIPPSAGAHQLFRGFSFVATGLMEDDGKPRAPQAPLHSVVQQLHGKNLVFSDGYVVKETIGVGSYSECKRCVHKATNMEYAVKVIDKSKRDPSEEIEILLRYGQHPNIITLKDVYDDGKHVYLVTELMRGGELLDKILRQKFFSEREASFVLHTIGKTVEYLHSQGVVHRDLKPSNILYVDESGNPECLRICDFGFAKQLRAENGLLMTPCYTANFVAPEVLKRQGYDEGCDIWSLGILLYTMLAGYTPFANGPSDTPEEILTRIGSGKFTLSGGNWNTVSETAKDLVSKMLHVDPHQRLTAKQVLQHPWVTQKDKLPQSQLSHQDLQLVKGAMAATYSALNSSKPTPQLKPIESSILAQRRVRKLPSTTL
Sequence of Phosphatidylinositol 4,5-bisphosphate 3-kinase catalytic subunit beta isoform (Homo sapiens) (P42338 whole entry, looked up, canonical isoform): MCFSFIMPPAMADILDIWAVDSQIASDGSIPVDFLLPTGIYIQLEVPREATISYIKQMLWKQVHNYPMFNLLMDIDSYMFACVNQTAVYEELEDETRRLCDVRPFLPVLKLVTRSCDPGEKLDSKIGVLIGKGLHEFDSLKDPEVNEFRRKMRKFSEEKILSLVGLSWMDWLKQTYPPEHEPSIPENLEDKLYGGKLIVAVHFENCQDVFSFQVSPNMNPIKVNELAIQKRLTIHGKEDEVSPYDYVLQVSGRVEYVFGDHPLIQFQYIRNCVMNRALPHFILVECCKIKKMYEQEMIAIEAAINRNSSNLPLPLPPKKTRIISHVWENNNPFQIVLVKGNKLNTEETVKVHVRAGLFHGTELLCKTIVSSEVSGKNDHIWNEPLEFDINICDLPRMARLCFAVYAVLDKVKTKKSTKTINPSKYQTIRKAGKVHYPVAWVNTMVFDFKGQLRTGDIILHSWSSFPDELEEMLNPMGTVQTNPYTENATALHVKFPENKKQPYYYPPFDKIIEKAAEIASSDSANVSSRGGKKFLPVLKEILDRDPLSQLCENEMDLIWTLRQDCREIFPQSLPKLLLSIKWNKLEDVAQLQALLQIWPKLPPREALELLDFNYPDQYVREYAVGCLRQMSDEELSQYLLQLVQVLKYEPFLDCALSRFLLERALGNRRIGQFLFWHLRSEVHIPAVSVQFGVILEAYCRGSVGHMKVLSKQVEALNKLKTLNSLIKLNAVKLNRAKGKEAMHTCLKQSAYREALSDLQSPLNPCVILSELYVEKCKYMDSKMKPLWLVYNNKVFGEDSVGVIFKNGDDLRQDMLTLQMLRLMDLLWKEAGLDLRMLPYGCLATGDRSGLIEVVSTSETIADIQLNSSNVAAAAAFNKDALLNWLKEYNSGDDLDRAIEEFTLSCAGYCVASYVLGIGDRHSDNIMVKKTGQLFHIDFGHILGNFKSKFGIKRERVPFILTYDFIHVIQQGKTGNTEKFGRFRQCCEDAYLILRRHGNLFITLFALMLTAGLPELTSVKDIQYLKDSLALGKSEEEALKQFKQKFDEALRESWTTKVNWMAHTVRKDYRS
Sequence of Phosphatidylinositol 4,5-bisphosphate 3-kinase catalytic subunit alpha isoform (Homo sapiens), P42336 [E545A] (P42336 whole entry E545A, canonical isoform): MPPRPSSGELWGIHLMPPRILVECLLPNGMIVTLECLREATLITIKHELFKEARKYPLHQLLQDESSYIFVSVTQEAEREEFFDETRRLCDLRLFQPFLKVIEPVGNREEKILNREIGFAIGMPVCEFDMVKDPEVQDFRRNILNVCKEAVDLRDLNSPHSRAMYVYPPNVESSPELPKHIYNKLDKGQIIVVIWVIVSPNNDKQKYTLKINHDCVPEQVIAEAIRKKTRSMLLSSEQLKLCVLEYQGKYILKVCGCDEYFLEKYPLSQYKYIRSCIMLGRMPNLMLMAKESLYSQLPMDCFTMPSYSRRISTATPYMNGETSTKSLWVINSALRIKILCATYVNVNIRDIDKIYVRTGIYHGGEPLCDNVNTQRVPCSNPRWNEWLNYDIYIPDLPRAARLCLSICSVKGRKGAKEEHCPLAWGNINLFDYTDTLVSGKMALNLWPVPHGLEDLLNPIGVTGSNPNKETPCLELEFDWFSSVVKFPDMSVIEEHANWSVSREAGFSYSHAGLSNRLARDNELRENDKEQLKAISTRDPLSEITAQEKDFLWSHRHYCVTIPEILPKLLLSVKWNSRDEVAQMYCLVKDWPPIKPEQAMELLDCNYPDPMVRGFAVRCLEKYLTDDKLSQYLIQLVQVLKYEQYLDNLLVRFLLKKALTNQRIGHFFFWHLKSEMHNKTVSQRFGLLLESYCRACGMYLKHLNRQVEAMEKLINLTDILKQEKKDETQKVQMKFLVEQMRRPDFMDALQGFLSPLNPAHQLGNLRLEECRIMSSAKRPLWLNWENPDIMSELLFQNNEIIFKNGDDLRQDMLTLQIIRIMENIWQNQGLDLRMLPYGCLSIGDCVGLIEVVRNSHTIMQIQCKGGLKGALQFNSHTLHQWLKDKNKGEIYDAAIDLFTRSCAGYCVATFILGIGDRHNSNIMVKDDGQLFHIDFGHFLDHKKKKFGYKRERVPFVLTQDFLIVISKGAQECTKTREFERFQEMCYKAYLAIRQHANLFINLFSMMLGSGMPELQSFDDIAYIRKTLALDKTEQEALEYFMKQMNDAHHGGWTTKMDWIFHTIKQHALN
Sequence of Mitogen-activated protein kinase kinase kinase 1 (Homo sapiens) (Q13233 whole entry): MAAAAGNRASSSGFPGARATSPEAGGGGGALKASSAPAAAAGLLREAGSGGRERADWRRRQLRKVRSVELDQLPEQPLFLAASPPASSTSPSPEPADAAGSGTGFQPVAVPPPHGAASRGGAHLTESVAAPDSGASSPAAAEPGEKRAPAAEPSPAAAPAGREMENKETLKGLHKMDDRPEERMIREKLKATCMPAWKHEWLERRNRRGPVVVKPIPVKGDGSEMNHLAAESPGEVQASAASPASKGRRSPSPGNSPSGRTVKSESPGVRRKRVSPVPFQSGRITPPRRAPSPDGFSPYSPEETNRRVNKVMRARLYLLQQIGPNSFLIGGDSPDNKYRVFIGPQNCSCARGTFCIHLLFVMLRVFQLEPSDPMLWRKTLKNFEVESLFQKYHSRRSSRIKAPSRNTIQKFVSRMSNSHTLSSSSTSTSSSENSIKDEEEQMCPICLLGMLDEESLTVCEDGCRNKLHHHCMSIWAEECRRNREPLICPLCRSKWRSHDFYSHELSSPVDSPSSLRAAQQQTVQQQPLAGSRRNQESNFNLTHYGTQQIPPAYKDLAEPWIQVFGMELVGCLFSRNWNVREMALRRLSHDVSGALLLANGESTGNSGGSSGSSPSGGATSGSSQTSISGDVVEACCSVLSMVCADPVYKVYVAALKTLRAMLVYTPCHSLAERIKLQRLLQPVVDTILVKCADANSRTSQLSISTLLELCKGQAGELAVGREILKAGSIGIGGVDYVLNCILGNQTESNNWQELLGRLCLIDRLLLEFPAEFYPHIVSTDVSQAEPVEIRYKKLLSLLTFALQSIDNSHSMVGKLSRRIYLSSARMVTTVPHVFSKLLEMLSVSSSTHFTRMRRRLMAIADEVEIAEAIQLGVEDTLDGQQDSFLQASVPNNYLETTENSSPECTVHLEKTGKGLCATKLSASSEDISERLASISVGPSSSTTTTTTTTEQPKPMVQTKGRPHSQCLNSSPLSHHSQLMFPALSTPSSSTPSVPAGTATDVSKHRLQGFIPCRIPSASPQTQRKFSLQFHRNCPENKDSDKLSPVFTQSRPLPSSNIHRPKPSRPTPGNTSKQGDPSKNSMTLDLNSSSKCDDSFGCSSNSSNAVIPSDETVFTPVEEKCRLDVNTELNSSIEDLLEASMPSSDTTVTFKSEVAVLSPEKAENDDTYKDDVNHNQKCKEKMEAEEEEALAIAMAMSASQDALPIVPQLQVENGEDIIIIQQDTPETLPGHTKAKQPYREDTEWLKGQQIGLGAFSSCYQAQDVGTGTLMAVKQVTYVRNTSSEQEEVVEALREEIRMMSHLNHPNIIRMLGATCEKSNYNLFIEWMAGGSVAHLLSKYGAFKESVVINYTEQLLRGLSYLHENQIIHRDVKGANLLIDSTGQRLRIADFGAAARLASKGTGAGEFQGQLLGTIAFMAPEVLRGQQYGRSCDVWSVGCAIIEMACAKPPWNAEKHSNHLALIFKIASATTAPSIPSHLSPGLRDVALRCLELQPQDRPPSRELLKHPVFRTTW
Sequence of Serine/threonine-protein kinase ULK3 (Homo sapiens) (Q6PHR2 whole entry): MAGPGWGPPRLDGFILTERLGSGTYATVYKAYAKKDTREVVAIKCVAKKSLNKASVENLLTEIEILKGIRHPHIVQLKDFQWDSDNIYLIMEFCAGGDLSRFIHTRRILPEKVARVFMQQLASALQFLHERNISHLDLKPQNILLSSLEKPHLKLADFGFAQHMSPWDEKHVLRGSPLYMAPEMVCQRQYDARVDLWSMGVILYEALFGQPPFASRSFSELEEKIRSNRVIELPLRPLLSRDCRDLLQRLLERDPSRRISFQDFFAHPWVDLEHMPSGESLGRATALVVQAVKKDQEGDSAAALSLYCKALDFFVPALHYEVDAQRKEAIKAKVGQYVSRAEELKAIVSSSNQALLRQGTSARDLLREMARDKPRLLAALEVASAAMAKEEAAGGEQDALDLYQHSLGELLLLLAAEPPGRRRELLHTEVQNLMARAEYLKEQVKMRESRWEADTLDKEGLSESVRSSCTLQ
Sequence of Phosphatidylinositol 4,5-bisphosphate 3-kinase catalytic subunit alpha isoform (Homo sapiens) (P42336 whole entry, canonical isoform): as the sequence (P42336 whole entry E545A, canonical isoform) above, with A545E counted along it

O=C(Nc1ccc(Oc2ccc(F)cc2)cc1)N1CCc2ncccc2[C@H]1c1ccc(F)cc1 [BAY-897]
inactive: residual activity [1] 100% | residual activity [2] 93% | residual activity [3] 100% | residual activity [4] 85% | residual activity [5] 93% | residual activity [6] 100% | residual activity [7] 90% | residual activity [8] 100% | residual activity [9] 93% | residual activity [10] 93% | residual activity [11] 86% | residual activity [12] 96% | residual activity [13] 100% | residual activity [14] 86% | residual activity [15] 98% | residual activity [16] 87% | residual activity [17] 89% | residual activity [18] 95% | residual activity [19] 86% | residual activity [20] 78% | residual activity [21] 100% | residual activity [22] 92% | residual activity [23] 76% | residual activity [24] 100% | residual activity [25] 82% | residual activity [26] 83% | residual activity [27] 100% | residual activity [28] 77% | residual activity [29] 83% | residual activity [30] 86% | residual activity [31] 93% | residual activity [32] 91% | residual activity [33] 92% | residual activity [34] 70% | residual activity [35] 100% | residual activity [36] 100% | residual activity [37] 90% | residual activity [38] 100% | residual activity [39] 100% | residual activity [40] 99% | residual activity [41] 99% | inhibition [42] 29.1% | inhibition [43] 26.9%

O=C(Nc1cnc(Oc2ccc(F)cc2)nc1)N1CCc2ncccc2[C@@H]1c1ccc(F)cc1 [BAY-899]
inactive: residual activity [1] 85% | residual activity [2] 90% | residual activity [3] 100% | residual activity [4] 74% | residual activity [5] 92% | residual activity [6] 100% | residual activity [7] 80% | residual activity [8] 83% | residual activity [9] 96% | residual activity [10] 98% | residual activity [11] 100% | residual activity [12] 100% | residual activity [13] 100% | residual activity [14] 81% | residual activity [15] 88% | residual activity [16] 89% | residual activity [17] 99% | residual activity [18] 100% | residual activity [19] 91% | residual activity [20] 83% | residual activity [21] 90% | residual activity [22] 86% | residual activity [23] 75% | residual activity [24] 100% | residual activity [25] 84% | residual activity [26] 100% | residual activity [27] 98% | residual activity [28] 84% | residual activity [29] 85% | residual activity [30] 90% | residual activity [31] 76% | residual activity [32] 89% | residual activity [33] 76% | residual activity [34] 90% | residual activity [35] 89% | residual activity [36] 82% | residual activity [37] 90% | residual activity [38] 100% | residual activity [39] 89% | residual activity [40] 100% | residual activity [41] 95% | inhibition [42] 10.1% | inhibition [43] 19.4%
